Laboratory results taken from US20090105341A1, “PROCESS FOR THE PRODUCTION OF TRANS-10, CIS 12 OCTADECADIENOIC ACID” (Teagasc Dairy Products Research Centre, priority 2005, published 2009).
Where two headings read alike, the source gives them in different places.

Experiments:
[1] = test system: human colon cancer cells SW480; assay: Anti-proliferative activity of fermented oils, MTS cell viability
Protocol: The probiotic strain Lactobacillus paracasei ssp. paracasei NFBC 338 (Lb. paracasei NFBC 338) was previously isolated from the human gastrointestinal tract (GIT), and obtained from University College Cork, Ireland under a restricted materials transfer agreement. Lb. paracasei NFBC 338 was routinely cultured overnight (˜17 h) in MRS broth (Oxoid Ltd., Hampshire, UK) and incubated at 37° C. under anaerobic conditions using anaerobic jars containing Anaerocult A gas packs (Merck, Darmstedt, Germany). L. lactis carrying the plasmids pNZ44 were routinely cultured in the presence of chloramphenicol (5 μg/ml) as a selective marker. Lb. paracasei NFBC harboring the vector pMSP3535 were routinely cultured with erythromycin (10 μg/ml) as selective marker. E. coli TOP 10 (Invitrogen) harbouring the plasmid pNZ44 was cultured in LB (Luria-Bertani)-media supplemented with chloramphenicol (20 μg/ml). Human colon cancer cells were obtained from the American Type Culture Collection (ATCC, Manassas, Va., USA). The t10, c12 CLA isomer (98%+purity) was obtained from Matreya (Matreya Inc., PA, USA;). Cell culture media and supplements were purchased from Sigma Aldrich Ireland Ltd. (Dublin, Ireland), unless otherwise stated. SW480 cells were maintained in Dulbecco's […] (DMEM) supplemented with 5% (v/v) fetal bovine serum, 0.2 mM L-glutamine, 1 mM HEPES and 1 unit/ml penicillin and streptomycin. SW480 cells were grown in 96 well plates and maintained at 37° C. in a humidified atmosphere and a pH of 7.2-7.4 by a required flow of 95% air and 5% CO2.
To examine the anti-proliferative activity of the oils extracted following fermentation of the cultures (L. lactis pNZ44-coPAI and E. coli pNZ44-coPAI) in respective media containing linoleic acid (0.5 mg/ml), human colon cancer cells SW480 were cultured in the presence of different concentrations of the fermented oils. Initially, 1×10^4 cells were seeded in wells and cultured for 24 h at 37° C. to allow the cells to adhere to the surface prior to treatment with 5-20 μg t10, c12 CLA (from fermented oils and t10, c12 CLA standards in ethanol) and 5-25 μg linoleic acid (control unfermented oil and Sigma standard)/ml of media. […] Control flasks were supplemented with ethanol to a final concentration of 0.1% (v/v). Following incubation for 5 days, cell viability was measured and relative cell number were determined using the MTS method (Promega Corporation, Madison, Wis., USA), a colorimetric method for determining the number of viable cells in proliferation or cytotoxicity assays subsequent to incubation with MTS tetrazolium compound. Following incubation with MTS for 2 h, the absorbance was recorded at 492 nm with a 96-well plate reader. Cell viability (%) after treatment is expressed relative to the ethanol control, which represented 100%.
All figures are related to ethanol controls=100% cell viability.

SW480 cells = settings: cited from earlier work; for Effect on SW480 cancer cells: 2003; for Reduction of cell viability: SW480, Miller et al. (2002)
[2] = test system: MCF-7 breast cancer cell line; settings: cited from earlier work; for Decrease in cell numbers / cell viability: MCF-7, 20 μg/ml for 8 days, O'Shea et al., 1999
[3] = dairy cows, cited from earlier work

## CCCCC/C=C\C/C=C\CCCCCCCC(=O)O [control-unfermented LA]
[1]; SW480, 5-25 μg/ml linoleic acid
  Effect on the cell viability: only a minor effect

## CCCCC/C=C\C/C=C\CCCCCCCC(=O)O [linoleic acid, 9 cis, 12 cis-octadecadienoic acid]
[1]; Homo sapiens, SW480, 120 h, read-out: Cell viability
  viability at 25 µg/mL: 93.2%
[1]; Student's t test
  Difference in cell viability versus control-linoleic acid (unfermented oil): No significant difference
SW480 cells; 16.9 μg/ml media (60.2 μM), Miller et al.
  Effect on SW480 cancer cells: slightly proliferative effect
SW480 cells; 42.8 μg/ml media (152.5 μM), Miller et al.
  Effect on SW480 cancer cells: anti-proliferative effect
SW480 cells; SW480, same amount (16 μg/ml), 4 days
  Increase of viability: 23%

## CCCCCC/C=C/C=C\CCCCCCCC(=O)O [c9, t11 CLA, cis-9, trans-11-octadecadienoic acid]
SW480 cells
  Reduction of cell viability: 40-52%
[2]
  Decrease in cell numbers / cell viability: 60%
[3]; abomasal infusion
  Effect on milk fat: no effect

## CCCCC/C=C\C=C\CCCCCCCCC(=O)O [t10, c12 CLA, trans-10, cis-12 octadecadienoic acid]
[1]; 10-15 μg/ml (p<0.001) and 20 μg/ml (p<0.01)
  Difference in cell viability versus L. lactis t10, c12 CLA: significant difference
[1]; at any concentration, Student's t test
  Difference in cell viability versus E. coli t10, c12 CLA (fermented oil): no significant difference
SW480 cells; SW480, 4 days incubation with 16 μg/ml, Miller et al., 2001
  Reduction of viability: 50-60%
SW480 cells
  Reduction of cell viability: 47-61%
[2]
  Decrease in cell numbers / cell viability: 15%
[2]; MCF-7, 4 days incubation with 16 μg/ml, Miller et al., 2001
  Reduction of viability: 50-60%
[3]; 4 days abomasal infusion
  Decrease in milk fat yield: 44%
  Reduction in milk fat percentage: 42%
